SMILES strings stand for the structures.

For orientation: EC50 means the concentration giving half of the maximal effect. Low readings indicate higher potency in that assay, high ones lower potency in that assay.

The target in this test is T1, human GPR119 (Homo sapiens, UniProt Q8TDV5).
T1 sequence (Q8TDV5 1-308 limits assumed): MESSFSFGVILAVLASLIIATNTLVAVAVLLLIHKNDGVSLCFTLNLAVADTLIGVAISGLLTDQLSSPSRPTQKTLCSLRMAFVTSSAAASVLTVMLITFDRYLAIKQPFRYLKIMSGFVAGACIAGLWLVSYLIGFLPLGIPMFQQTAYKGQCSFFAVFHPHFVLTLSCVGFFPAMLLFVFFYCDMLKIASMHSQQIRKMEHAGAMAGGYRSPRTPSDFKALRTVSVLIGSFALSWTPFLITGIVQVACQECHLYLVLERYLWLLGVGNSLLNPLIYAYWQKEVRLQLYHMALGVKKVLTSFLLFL
Briefly: Measurement of GPR119 signaling by cAMP (LANCE cAMP kit or HTRF) in HEK293 cells transfected with human GPR119. The class given is cell-based. To be noted: agonist cAMP response in HEK293 cells stably transfected with human GPR119; patent does not say which of the two cAMP formats (LANCE or HTRF). The essentials: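 LANCE TR-FRET cAMP readout; detection with Eu-SA/biotin-cAMP tracer for 3 h, signal converted to cAMP via standard curve, duplicates, 4-parameter fit vs DMSO basal and internal agonist maximum.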
In turn, `COc1cnc(N2CCC([C@H]3C[C@H]3CCOc3ccc(CC(=O)N4CC(C)(O)C4)c(F)c3)CC2)nc1` [Example 35] had an EC50 of 2.2 nM. Consider `COCc1cnc(N2CCC([C@H]3C[C@H]3CCOc3ccc(CC(=O)N4CCOCC4)cc3)CC2)nc1` [Example 10], for which the EC50 turned out to be 8.3 nM. In the case of `CC1CCC(C)N1C(=O)Cc1ccc(OCC[C@@H]2C[C@@H]2C2CCN(c3ncc(Cl)cn3)CC2)cc1F` (stereo partly drawn) [Example 90], the EC50 was determined as 7.2 nM. Compound `CCc1nnc2n1CCN(C(=O)Cc1ccc(OCC[C@@H]3C[C@@H]3C3CCN(c4ncc(Cl)cn4)CC3)cc1F)C2` [Example 151] displayed an EC50 of 4.7 nM. The compound `CCOC(=O)CN(C)C(=O)Cc1ccc(OCC[C@@H]2C[C@@H]2C2CCN(c3ncc(Cl)cn3)CC2)cc1F` [Example 171] displayed an EC50 of 1.7 nM. `O=C(Cc1ccc(OCC[C@@H]2C[C@@H]2C2CCN(c3ncc(Cl)cn3)CC2)cc1F)N1CCc2[nH]nc(C(F)(F)F)c2C1` [Example 146] registered an EC50 of 3.1 nM. With `CC1(O)CCN(C(=O)Cc2ccc(OCC[C@@H]3C[C@@H]3C3CCN(c4ncc(Cl)cn4)CC3)cc2F)C1` (stereo partly drawn) [Example 74] the figure was 4.2 nM. As to `O=C(Cc1ccc(OCC[C@@H]2C[C@@H]2C2CCN(c3ncc(Cl)cn3)CC2)cc1F)N1CCc2sc(C3CC3)nc2C1` [Example 190], the EC50 was determined as 6.4 nM. With `CC1(NC(=O)Cc2ccc(OCC[C@@H]3C[C@@H]3C3CCN(c4ncc(Cl)cn4)CC3)cc2F)CCC1` [Example 92] the figure was 4 nM. With `Cc1cc(OCC[C@@H]2C[C@@H]2C2CCN(c3ncc(Cl)cn3)CC2)ccc1CC(=O)N1CCC1` [Example 15, 1-(azetidin-1-yl)-2-[4-(2-{(1S,2R)-2-[1-(5-chloropyrimidin-2-yl)piperidin-4-yl]cyclopropyl}ethoxy)-2-methylphenyl]ethanone] the figure was 0.73 nM; with `COCc1cnc(N2CCC([C@H]3C[C@H]3CCOc3cc(F)c(CC(=O)N4CC(C(C)(C)O)C4)c(F)c3)CC2)nc1` [Example 222], 2 nM; with `CC1(C)CN(C(=O)Cc2ccc(OCC[C@@H]3C[C@@H]3C3CCN(c4ncc(Cl)cn4)CC3)cc2F)Cc2nnc(C(F)(F)F)n21` [Example 179], 1.1 nM. `O=C(Cc1ccc(OCC[C@@H]2C[C@@H]2C2CCN(c3ncc(Cl)cn3)CC2)cc1F)NC1CCC1` [Example 63] had an EC50 of 4.2 nM. As for `Cc1cc(OCC[C@@H]2C[C@@H]2C2CCN(c3ncc(Cl)cn3)CC2)ccc1CC(=O)N(C)C` [Example 18, 2-[4-(2-{(1S,2R)-2-[1-(5-chloropyrimidin-2-yl)piperidin-4-yl]cyclopropyl}ethoxy)-2-methylphenyl]-N,N-dimethylacetamide], the EC50 is 1.7 nM.

On to `O=C(Cc1ccc(OCC[C@@H]2C[C@@H]2C2CCN(c3ncc(Cl)cn3)CC2)cc1F)N1CCn2ccnc2C1` [Example 149], for which the EC50 was 1.1 nM. In turn, `CN(CC(C)(C)C)C(=O)Cc1ccc(OCC[C@@H]2C[C@@H]2C2CCN(c3ncc(Cl)cn3)CC2)cc1F` [Example 168] displayed an EC50 of 9.4 nM.

In the case of `O=C(Cc1ccc(OCC[C@@H]2C[C@@H]2C2CCN(c3ncc(Cl)cn3)CC2)cc1F)NC1CCC(F)(F)C1` (stereo partly drawn) [Example 95], the EC50 is 2.3 nM. In the case of `O=C(Cc1ccc(OCC[C@@H]2C[C@@H]2C2CCN(c3ncc(Cl)cn3)CC2)cc1F)N1CCC(C(F)(F)F)n2nccc21` (stereo partly drawn) [Example 195], the EC50 turned out to be 2.9 nM. `CN(CCCO)C(=O)Cc1ccc(OCC[C@@H]2C[C@@H]2C2CCN(c3ncc(Cl)cn3)CC2)cc1F` [Example 153] returned an EC50 of 1.6 nM. Regarding `O=C(Cc1ccc(OCC[C@@H]2C[C@@H]2C2CCN(c3ncc(Cl)cn3)CC2)cc1F)N1CCCc2cnccc21` [Example 194], the EC50 was 3.6 nM.

As to `O=C(Cc1ccc(OCC[C@@H]2C[C@@H]2C2CCN(c3ncc(Cl)cn3)CC2)cc1F)N1CC(c2cccnc2)C1` [Example 122], the EC50 stood at 0.66 nM.

(Values after patent US9018224B2, “Substituted cyclopropyl compounds useful as GPR119 agonists” (Merck Sharp & Dohme Corp., priority 2011, dated 2015).)
